Experimental data: the supplement of paper PMC11061612

Columns and labels:
Assay in all cases: Bliss excess, mean over the matrix (fraction); higher = more synergy
[1] = system: MDST8 (Colorectal Carcinoma)
Method in brief: (§1)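 Cell lines grown in DMEM/F12 or RPMI with 10% FBS were plated in 1536-well plates and held 24 hours at 37°C, 5% CO2 before 72 hours of exposure to two-drug dose matrices, with DMSO typically at 0.2%. CellTiter-Glo 2.0 luminescence gave viability, which was converted to inhibition. Vehicle wells were set to 0 and blank wells to 1. Combination Emax is the second-highest inhibition in the matrix, and Bliss excess is the observed combination effect minus the expected EA + EB − EA·EB, where EA and EB are the single-agent effects.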

IGR-37 (Melanoma) = system: IGR-37 (Melanoma)
Method in brief: as §1

ARH-77 (Non-Cancerous) = system: ARH-77 (Non-Cancerous)
Method in brief: as §1

CAS-1 (Glioblastoma) = system: CAS-1 (Glioblastoma)
Method in brief: as §1

[2] = system: TT2609-C02 (Thyroid Gland Carcinoma)
Method in brief: as §1

[3] = system: NCI-H1581 (Non-Small Cell Lung Carcinoma)
Method in brief: as §1

[4] = system: NCI-H64 (Small Cell Lung Carcinoma)
Method in brief: as §1

[5] = system: CAL-29 (Bladder Carcinoma)
Method in brief: as §1

A498 (Kidney Carcinoma) = system: A498 (Kidney Carcinoma)
Method in brief: as §1

[6] = system: PANC-10-05 (Pancreatic Carcinoma)
Method in brief: as §1

GI-ME-N (Neuroblastoma) = system: GI-ME-N (Neuroblastoma)
Method in brief: as §1

[7] = system: COR-L311 (Small Cell Lung Carcinoma)
Method in brief: as §1

FU97 (Gastric Carcinoma) = system: FU97 (Gastric Carcinoma)
Method in brief: as §1

[8] = system: VCaP (Prostate Carcinoma)
Method in brief: as §1

[9] = system: ONS-76 (Other Solid Carcinomas)
Method in brief: as §1

8-MG-BA (Glioblastoma) = system: 8-MG-BA (Glioblastoma)
Method in brief: as §1

NY (Osteosarcoma) = system: NY (Osteosarcoma)
Method in brief: as §1

[10] = system: HCC1954 (Breast Carcinoma)
Method in brief: as §1

NCI-H2591 (Mesothelioma) = system: NCI-H2591 (Mesothelioma)
Method in brief: as §1

PA-1 (Ovarian Carcinoma) = system: PA-1 (Ovarian Carcinoma)
Method in brief: as §1

Row | Compound | Bliss excess [1] | Bliss excess (IGR-37 (Melanoma)) | Bliss excess (ARH-77 (Non-Cancerous)) | Bliss excess (CAS-1 (Glioblastoma)) | Bliss excess [2] | Bliss excess [3] | Bliss excess [4] | Bliss excess [5] | Bliss excess (A498 (Kidney Carcinoma)) | Bliss excess [6] | Bliss excess (GI-ME-N (Neuroblastoma)) | Bliss excess [7] | Bliss excess (FU97 (Gastric Carcinoma)) | Bliss excess [8] | Bliss excess [9] | Bliss excess (8-MG-BA (Glioblastoma)) | Bliss excess (NY (Osteosarcoma)) | Bliss excess [10] | Bliss excess (NCI-H2591 (Mesothelioma)) | Bliss excess (PA-1 (Ovarian Carcinoma))
1 | CN(CCO)CC[C@H](CSc1ccccc1)Nc1ccc(S(=O)(=O)NC(=O)c2ccc(N3CCC([C@@H](O)c4ccccc4-c4ccc(Cl)cc4)CC3)cc2)cc1S(=O)(=O)C(F)(F)F [AZD4320] + CCN(CCO)CCCOc1ccc2c(Nc3cc(CC(=O)Nc4cccc(F)c4)[nH]n3)ncnc2c1 [AZD2811] (first compound max 1 µM, 7x7, partner max 1 µM) | 0.0868 | -0.0204 | 0.0992 | 0.0208 | 0.0411 | 0.0584 | 0.158 | 0.103 | -0.0371 | -0.0758 | -0.057 | 0.0249 | -0.0531 | 0.0003 | 0.0817 | 0.003 | -0.0182 | 0.149 | 0.0015 | 0.0664
2 | CN(CCO)CC[C@H](CSc1ccccc1)Nc1ccc(S(=O)(=O)NC(=O)c2ccc(N3CCC([C@@H](O)c4ccccc4-c4ccc(Cl)cc4)CC3)cc2)cc1S(=O)(=O)C(F)(F)F [AZD4320] + CN(C)CCCOc1ccc(-c2ccc3ncc4c(c3c2)n(C2CCOCC2)c(=O)n4C)cn1 [AZD0156] (first compound max 1 µM, 7x7, partner max 1 µM) | -0.0419 | -0.0148 | -0.0283 | -0.0328 | -0.0325 | 0.0018 | 0.0003 | -0.0187 | -0.0358 | -0.0489 | -0.0454 | 0.0177 | -0.0303 | -0.0185 | -0.0494 | -0.0146 | -0.0432 | 0.0526 | -0.0508 | -0.0528
3 | CN(CCO)CC[C@H](CSc1ccccc1)Nc1ccc(S(=O)(=O)NC(=O)c2ccc(N3CCC([C@@H](O)c4ccccc4-c4ccc(Cl)cc4)CC3)cc2)cc1S(=O)(=O)C(F)(F)F [AZD4320] + C[C@@H]1COCCN1C2=NC(=NC(=C2)C3(CC3)[S@](=N)(=O)C)C4=C5C=CNC5=NC=C4 [AZD6738] (first compound max 1 µM, 7x7, partner max 10 µM) | -0.0578 | 0.0151 | -0.0049 | -0.0307 | -0.0542 | -0.0837 | -0.0404 | 0.0426 | -0.157 | -0.0476 | -0.0403 | -0.0005 | -0.0215 | -0.0287 | -0.0386 | 0.0107 | 0.0125 | 0.0289 | -0.0462 | 0.0242
4 | CN(CCO)CC[C@H](CSc1ccccc1)Nc1ccc(S(=O)(=O)NC(=O)c2ccc(N3CCC([C@@H](O)c4ccccc4-c4ccc(Cl)cc4)CC3)cc2)cc1S(=O)(=O)C(F)(F)F [AZD4320] + C[C@@H](Nc1cc(F)cc(F)c1)c1cc(C(=O)N(C)C)cc2c(=O)cc(N3CCOCC3)oc12 [AZD8186] (first compound max 1 µM, 7x7, partner max 3 µM) | 0.025 | 0.029 | 0.0067 | -0.0831 | 0.0003 | 0.0052 | -0.0372 | -0.0215 | 0.0903 | -0.073 | 0.0272 | 0.0588 | 0.0471 | 0.0559 | 0.0221 | -0.0301 | -0.005 | 0.0622 | 0.0135 | 0.0411
5 | CN(CCO)CC[C@H](CSc1ccccc1)Nc1ccc(S(=O)(=O)NC(=O)c2ccc(N3CCC([C@@H](O)c4ccccc4-c4ccc(Cl)cc4)CC3)cc2)cc1S(=O)(=O)C(F)(F)F [AZD4320] + Cc1cc2ncnn2cc1Nc1ncc2c(n1)n(C1CCOCC1)c(=O)n2C [AZD7648] (first compound max 1 µM, 7x7, partner max 10 µM) | -0.0283 | -0.0132 | 0.0238 | -0.048 | -0.0367 | -0.0158 | -0.0449 | -0.0074 | -0.0393 | -0.0652 | -0.0775 | 0.0219 | -0.0375 | -0.0185 | -0.0301 | -0.0188 | -0.018 | 0.028 | -0.0445 | 0.0302
6 | CN(CCO)CC[C@H](CSc1ccccc1)Nc1ccc(S(=O)(=O)NC(=O)c2ccc(N3CCC([C@@H](O)c4ccccc4-c4ccc(Cl)cc4)CC3)cc2)cc1S(=O)(=O)C(F)(F)F [AZD4320] + Cn1cnc2c(F)c(Nc3ccc(Br)cc3Cl)c(C(=O)NOCCO)cc21 [Selumetinib] (first compound max 1 µM, 7x7, partner max 3 µM) | 0.0763 | -0.0039 | -0.0039 | -0.054 | -0.0046 | 0.0408 | 0.0427 | 0.0826 | 0.0329 | 0.0065 | 0.0196 | -0.0034 | -0.011 | 0.0322 | 0.019 | 0.0614 | 0.0072 | 0.0665 | 0.0309 | 0.144
